Measured values: publication PMC11915835, “Enhancing the solubility of SARS-CoV-2 inhibitors to increase future prospects for clinical development” (Journal of Virology, 2025)

Biological target: SARS-CoV-2 S D614G (Severe acute respiratory syndrome coronavirus 2, UniProt P0DTC2, D614G)
Format: cell-based
Conditions: read-out: IC90, inhibition of S-mediated cell–cell fusion, SARS-CoV-2 D614G

Substance | IC90 [µM]
Ac-DISQINASVVNIEYEIKKLEEVAKKLEESLIDLQEL-NH2 [QE] | 0.07 ± 0.01
Ac-PDVDLGDISQINASVVNIEYEIKKLEEVAKKLEESLIDLQEL-NH2 [QE-EXT] | 0.09 ± 0.02
Ac-SIDQINATFVDIEYEIKKLEEVAKKLEESYIDLKEL-NH2 [SK] | 0.096 ± 0.02
